The values below come from patent publication US20140155384A1, “COMPOUNDS AND METHODS OF TREATING DIABETES” (Medivation Technologies, Inc., priority 2011, published 2014).

The target of assay [1] is T1, rat adrenergic α1B receptor (Rattus norvegicus, UniProt P15823).
T1 construct: rat adrenergic α1B receptor obtained from Wistar Rat liver; from tissue; host or cells: Wistar rat liver
T1 sequence (P15823 1-515): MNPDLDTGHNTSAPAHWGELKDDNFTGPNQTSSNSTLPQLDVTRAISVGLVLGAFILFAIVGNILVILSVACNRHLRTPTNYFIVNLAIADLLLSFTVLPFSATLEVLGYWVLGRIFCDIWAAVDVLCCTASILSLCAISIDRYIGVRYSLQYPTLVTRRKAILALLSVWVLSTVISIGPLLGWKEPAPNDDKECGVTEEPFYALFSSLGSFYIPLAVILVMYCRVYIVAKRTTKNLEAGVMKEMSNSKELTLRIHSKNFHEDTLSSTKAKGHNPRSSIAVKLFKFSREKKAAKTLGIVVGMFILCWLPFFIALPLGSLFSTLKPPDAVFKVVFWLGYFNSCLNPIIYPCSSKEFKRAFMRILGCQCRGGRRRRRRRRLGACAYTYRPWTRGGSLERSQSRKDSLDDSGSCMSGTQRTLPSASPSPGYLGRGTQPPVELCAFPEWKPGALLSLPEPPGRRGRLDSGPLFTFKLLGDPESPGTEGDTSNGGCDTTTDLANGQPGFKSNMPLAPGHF
Put plainly: Radioligand binding, adrenergic α1B receptor ([3H]Prazosin). To be noted: 0.1 μM compound, Wistar rat liver, read-out: Percentage inhibition of ligand binding, Adrenergic α1B. As for the experimental part: To evaluate in radioligand binding assays the activity of compounds, rat adrenergic α1B receptor obtained from Wistar Rat liver (Garcia-S' ainz, J. et al, Biochem. Biophys. Res. Commun. 186:760, 1992; Michel, A. et al, Br. J. Pharmacol. 98:883, 1989) in a modified Tris-HCl buffer (50 mM Tris-HCl buffer, pH 7.4, 0.5 mM EDTA) was used. Compounds were incubated with 0.25 nM [^3H]Prazosin for 60 min at […]. Non-specific binding was estimated in the presence of 10 μM phentolamine. Receptor proteins were filtered and washed, the filters were then counted to determine [^3H]Prazosin specifically bound. Compounds were screened at 1 μM or lower, using 1% DMSO as vehicle. Compounds were tested in this biochemical assay and percent inhibition of specific binding was determined. Biochemical assay results are presented as the percent inhibition of specific binding in Table 2.

The target in assay [2] is T2, human recombinant adrenergic α1D receptor (Homo sapiens, UniProt P25100).
T2 construct: expressed in transfected cells; host or cells: HEK-293
T2 sequence (P25100 1-572): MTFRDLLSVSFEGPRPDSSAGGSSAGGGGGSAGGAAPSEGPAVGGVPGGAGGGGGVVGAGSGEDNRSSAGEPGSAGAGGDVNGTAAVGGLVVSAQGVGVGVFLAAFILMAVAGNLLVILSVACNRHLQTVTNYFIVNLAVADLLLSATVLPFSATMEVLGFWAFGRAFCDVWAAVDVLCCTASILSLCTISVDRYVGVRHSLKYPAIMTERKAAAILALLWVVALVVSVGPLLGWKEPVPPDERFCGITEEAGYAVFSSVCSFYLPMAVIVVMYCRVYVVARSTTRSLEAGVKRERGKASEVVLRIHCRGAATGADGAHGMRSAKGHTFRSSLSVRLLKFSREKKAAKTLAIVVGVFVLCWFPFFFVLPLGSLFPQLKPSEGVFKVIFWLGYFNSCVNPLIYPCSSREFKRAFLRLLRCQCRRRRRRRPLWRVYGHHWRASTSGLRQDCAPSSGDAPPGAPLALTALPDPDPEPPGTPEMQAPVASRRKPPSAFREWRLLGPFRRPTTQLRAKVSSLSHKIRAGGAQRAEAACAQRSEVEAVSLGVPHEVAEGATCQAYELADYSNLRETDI
The experiment in a line: Radioligand binding, adrenergic α1D receptor ([3H]Prazosin). The settings on record: 0.1 μM compound; HEK-293 cells; 0.6 nM [3H]Prazosin; read-out: Percentage inhibition of ligand binding, Adrenergic α1D. As for the experimental part:
Compounds were incubated with 0.6 nM [3H]Prazosin for 60 min at 25° C. Non-specific binding was estimated in the presence of 10 μM phentolamine. Receptor proteins were filtered and washed, the filters were then counted to determine [3H]Prazosin specifically bound. Compounds were screened at 1 μM or lower, using 1% DMSO as vehicle. Biochemical assay results are presented as the percent inhibition of specific binding in Table 2.

In assay [3] the target is T3, human recombinant adrenergic α2A receptor (Homo sapiens, UniProt P08913).
T3 construct: expressed in transfected cells; host or cells: insect Sf9 cells
T3 sequence (P08913 1-465): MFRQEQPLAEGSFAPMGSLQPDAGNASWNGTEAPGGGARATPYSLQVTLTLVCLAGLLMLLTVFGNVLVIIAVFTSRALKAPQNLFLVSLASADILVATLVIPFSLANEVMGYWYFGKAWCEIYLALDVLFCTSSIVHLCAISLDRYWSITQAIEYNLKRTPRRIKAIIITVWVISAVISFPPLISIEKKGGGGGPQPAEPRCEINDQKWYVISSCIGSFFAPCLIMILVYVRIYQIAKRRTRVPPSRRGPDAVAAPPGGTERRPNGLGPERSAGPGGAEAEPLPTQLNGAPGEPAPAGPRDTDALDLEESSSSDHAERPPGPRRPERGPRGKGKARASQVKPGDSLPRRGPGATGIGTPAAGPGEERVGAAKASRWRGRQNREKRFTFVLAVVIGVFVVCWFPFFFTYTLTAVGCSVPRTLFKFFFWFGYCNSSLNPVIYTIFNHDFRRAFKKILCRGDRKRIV
Put plainly: Radioligand binding, adrenergic α2A receptor ([3H]MK-912). The settings on record: 0.1 μM compound, Sf9 cells, 1 nM [3H]MK-912; for inhibition at 0.1 µM: read-out: Percentage inhibition of ligand binding, Adrenergic α2A. The protocol:
To evaluate in radioligand binding assays the activity of compounds, human recombinant adrenergic α2A receptor expressed in insect Sf9 cells (Uhlen, S. et al, J. Pharmacol. Exp. Ther. 271:1558, 1994) in a modified Tris-HCl buffer (50 mM Tris-HCl, pH 7.4, 12.5 mM MgCl2, 2 mM EDTA) was used. Compounds were incubated with 1 nM [^3H]MK-912 for 60 min at 25° C. MK912 is (2S-trans)-1,3,4,5′,6,6′,7,12b-octahydro-1′,3′-dimethyl-spiro[2H-benzofuro[2,3-a]quinolizine-2,4′(1′H)-pyrimidin]-2′(3′H)-one hydrochloride Non-specific binding was estimated in the presence of 10 μM WB-4101 (2-(2,6-Dimethoxyphenoxyethyl)aminoethyl-1,4-benzodioxane hydrochloride). Receptor proteins were filtered and washed, the filters were then counted to determine [^3H]MK-912 specifically bound. Compounds were screened at 1 μM or lower, using 1% DMSO as vehicle. Compounds were tested in this biochemical assay and percent inhibition of specific binding was determined. Biochemical assay results are presented as the percent inhibition of specific binding in Table 2.

Assay [4] has as its target T4, human recombinant adrenergic α2B receptor (Homo sapiens, UniProt P18089).
T4 construct: expressed in transfected cells; host or cells: CHO-K1
T4 sequence (P18089 1-450): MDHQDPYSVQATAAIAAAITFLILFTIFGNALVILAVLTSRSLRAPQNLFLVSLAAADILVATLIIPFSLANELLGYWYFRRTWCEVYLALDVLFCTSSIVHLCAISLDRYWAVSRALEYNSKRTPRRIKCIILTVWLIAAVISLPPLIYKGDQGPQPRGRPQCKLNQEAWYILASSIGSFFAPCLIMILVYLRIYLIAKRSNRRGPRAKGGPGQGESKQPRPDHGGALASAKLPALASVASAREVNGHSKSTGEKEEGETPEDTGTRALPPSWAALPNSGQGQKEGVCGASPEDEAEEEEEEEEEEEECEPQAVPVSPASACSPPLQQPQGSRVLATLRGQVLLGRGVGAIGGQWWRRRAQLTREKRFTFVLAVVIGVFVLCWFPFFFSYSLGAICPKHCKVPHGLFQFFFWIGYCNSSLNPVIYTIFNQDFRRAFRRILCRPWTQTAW
Put plainly: Radioligand binding, adrenergic α2B receptor ([3H]Rauwolscine). The settings on record: CHO-K1 cells, read-out: Percentage inhibition of ligand binding, Adrenergic α2B; for inhibition at 0.1 µM: 0.1 μM compound. The protocol:
To evaluate in radioligand binding assays the activity of compounds, human recombinant adrenergic α2B receptor expressed in Chinese hamster ovary (CHO) K1 cells (Uhlen, S. et al, Eur. J. Pharmacol. 343(1):93, 1998) in a modified Tris-HCl buffer (50 mM Tris-HCl, pH 7.4, 12.5 mM MgCl2, 1 mM EDTA, 0.2% BSA) was used. Compounds were incubated with 2.5 nM [^3H]Rauwolscine for 60 min at 25° C. Non-specific binding was estimated in the presence of 10 μM Prazosin. Receptor proteins were filtered and washed, the filters were then counted to determine [^3H]Rauwolscine specifically bound. Compounds were screened at 1 μM or lower, using 1% DMSO as vehicle. Compounds were tested in this biochemical assay and percent inhibition of specific binding was determined. Biochemical assay results are presented as the percent inhibition of specific binding in Table 2.

The structures appear in SMILES notation.

The term inhibition denotes how much of the control response was suppressed. `Cc1ccc2c(c1)c1c(n2-c2cccc(-c3ccc4c(ccn4C)c3)c2)CCN(C)C1` [Compound 53, 2,8-dimethyl-5-(3-(1-methyl-1H-indol-5-yl)phenyl)-2,3,4,5-tetrahydro-1H-pyrido[4,3-b]indole]: the inhibition at 0.1 µM stood at 8% in assay [1], 0% in assay [2], 24% in assay [3] and 15% in assay [4].
For `Cc1ccc2c(c1)c1c(n2-c2ccc(-c3ccc(S(N)(=O)=O)cc3)cn2)CCN(C)C1` [Compound No. 145, 4-(6-(2,8-dimethyl-3,4-dihydro-1H-pyrido[4,3-b]indol-5(2H)-yl)pyridin-3-yl)benzenesulfonamide], in that order: 86%, 73%, 71% and 83%.
For `Cc1ccc2c(c1)c1c(n2-c2cccc(-c3ccc(S(C)(=O)=O)cc3)c2)CCN(C)C1` [Compound No. 131, 2,8-dimethyl-5-(4′-(methylsulfonyl)biphenyl-3-yl)-2,3,4,5-tetrahydro-1H-pyrido[4,3-b]indole], in that order: 0%, 3%, 75% and 28%.
In the same order, the values of `Cc1ccc2c(c1)c1c(n2-c2cscc2-c2ccc(F)nc2)CCN(C)C1` [Compound 35] are 67%, 68%, 84% and 95%.
As to `Cc1ccc2c(c1)c1c(n2-c2cccc(-c3c(C)noc3C)c2)CCN(C)C1` [Compound No. 65, 4-(3-(2,8-dimethyl-3,4-dihydro-1H-pyrido[4,3-b]indol-5(2H)-yl)phenyl)-3,5-dimethylisoxazole], the inhibition at 0.1 µM in assay [1] came to 14%; in assay [2], 1%; in assay [3], 33%; in assay [4], 46%.
`Cc1ccc2c(c1)c1c(n2-c2ccccc2-c2cnccc2C)CCN(C)C1` [Compound No. 159, 2,8-dimethyl-5-(2-(4-methylpyridin-3-yl)phenyl)-2,3,4,5-tetrahydro-1H-pyrido[4,3-b]indole]: the inhibition at 0.1 µM in assay [4] amounted to 56%.
Turning to `Cc1ccc2c(c1)c1c(n2-c2cnc(C)c3ccccc23)CCN(C)C1` [Compound No. 164, 2,8-dimethyl-5-(1-methylisoquinolin-4-yl)-2,3,4,5-tetrahydro-1H-pyrido[4,3-b]indole], the inhibition at 0.1 µM in assay [4] came to 3%.
On to `Cc1ccc2c(c1)c1c(n2-c2ncccc2-c2ccncc2)CCN(C)C1` [Compound No. 161, 5-(3,4′-bipyridin-2-yl)-2,8-dimethyl-2,3,4,5-tetrahydro-1H-pyrido[4,3-b]indole], for which, in assay [4], the inhibition at 0.1 µM is 26%.
Take `Cc1ccc2c(c1)c1c(n2-c2ccccc2-c2ccc(S(C)(=O)=O)cc2)CCN(C)C1` [Compound No. 160, 2,8-dimethyl-5-(4′-(methylsulfonyl)biphenyl-2-yl)-2,3,4,5-tetrahydro-1H-pyrido[4,3-b]indole]: the inhibition at 0.1 µM in assay [4] stood at 74%.
Consider `Cc1ccc2c(c1)c1c(n2-c2cnc3c(c2)CCCC3)CCN(C)C1` [Compound No. 153], for which the inhibition at 0.1 µM in assay [3] amounted to 1%.
On to `Cc1ccc2c(c1)c1c(n2-c2ccccc2-c2cn[nH]c2)CCN(C)C1` [Compound No. 104, 5-(2-(1H-pyrazol-4-yl)phenyl)-2,8-dimethyl-2,3,4,5-tetrahydro-1H-pyrido[4,3-b]indole], for which the inhibition at 0.1 µM in assay [2] amounted to 22%; in assay [3] it was 10%; in assay [4] it was 87%. For the same molecule, in assay [3], the “Percentage inhibition of ligand binding, Adrenergic α2A” value was found to be 19%. In addition, the inhibition at 0.03 µM in assay [4] (0.03 μM compound) turned out to be 61%.
`Cc1ccc2c(c1)c1c(n2-c2ccccc2-c2ccc(S(N)(=O)=O)cc2)CCN(C)C1` [Compound No. 163, 2′-(2,8-dimethyl-3,4-dihydro-1H-pyrido[4,3-b]indol-5(2H)-yl)biphenyl-4-sulfonamide]: in assay [4], the inhibition at 0.1 µM was found to be 69%.
